According to patent US8642040B2, “Methods for promoting myelination, neuronal survival and oligodendrocyte differentiation via administration of Sp35 or TrkA antagonists” (Biogen Idec MA Inc., priority 2006, dated 2014):

Key:
Assay type in all cases: cell-based, rat
[1] = system: DRG-oligodendrocyte co-cultures; assay: DRG-oligodendrocyte co-culture myelination, Western blot for MBP and MAG; conditions: FIG. 7
From the text: CNS myelination in the presence of NGF and either an Sp35 antagonist (Sp35-DN) or a TrkA antagonist (TrkA-DN) was examined. 3 week old DRG and oligodendrocyte cocultures (prepared as described in Example 3) were infected with lentiviruses, at an MOI of 2 per cell, expressing either full-length or dominant negative Sp35, full-length or dominant negative Nogo Receptor, full-length or dominant negative Taj, full-length or dominant negative p75, and full-length or dominant negative TrkA. Lentiviruses were prepared as described in Example 3 and as follows. Rat p75 full length (FL-p75, amino acid residues 1-425), p75 dominant negative (DN-p75, amino acid residues 1-275), human TrkA full length (FL-TrkA, amino acid residues 1-796), TrkA dominant negative (DN-TrkA, amino acid residues 1-441), human Taj full length (FL-Taj, amino acid residues 1-417), Taj dominant negative (DN-Taj, amino acid residues 1-192), rat Nogo receptor full length (FL-NgR, amino acid residues 1-473), Nogo receptor dominant negative (DN-NgR, amino acid residues 28-310). DNA sequence was inserted into the NotI and BamHI sites of HRST-IRESeGFP lentivirus vector. Plasmids were transfected into 293 cells to produce lentivirus as described in Rubinson et al. Nat. Genetics 33:401-406 (2003).
Co-culture lysates were examined at 3 weeks and analyzed by Western blot as described previously. The blots were probed with polyclonal antibodies to MAG and to MBP. The myelin proteins MAG and MBP were used as markers for myelination.
The TrkA compound antagonist K525a was also tested in DRG-oligodendrocyte cocultures for its ability to promote myelination.
The myelin proteins MAG and MBP were used to determine whether TrkA was upstream of Sp35 in inhibiting myelination in DRG-oligodendrocyte co-cultures. Oligodendrocyte-DRG co-cultures were prepared as described in Example 3. […]
Fresh media was changed every three days. […] Lysates were subjected to 4-20% SDS-PAGE, and analyzed by Western blotting with an antibody to MBP, MAG and Sp35. […]

Sp35 [2] = assay: RT-PCR for Sp35 in purified DRGs with or without NGF; conditions: 100 ng/ml NGF for 24 hours; FIG. 9A
Description: RT-PCR for TrkA, Sp35 and GAPDH was performed on purified OPCs, SCs and DRGs in the presence or absence of NGF or BDNF as follows. Cultures of OPCs, SCs and DRGs were prepared as described above. Wells of the tissue culture dishes were treated with either 100 ng/ml of NGF or 100 ng/ml of BDNF for 24 hours prior to mRNA isolation. Cellular mRNA was extracted using the Absolutely RNA miniprep kit (Stratagene). Equal amounts of mRNA were subjected to RT-PCR. The primer sets used for the PCR reactions are as follows: […]

Sp35 [3] = assay: Sp35 expression in co-cultures, DRG neuronal and oligodendrocyte cultures treated with NGF
Description: Oligodendrocyte—DRG co-cultures were prepared as described previously. Various concentrations of NGF (0, 10, 50 and 100 ng/ml) were added to oligodendrocyte—DRG co-cultures, DRG neuronal cultures and oligodendrocyte cultures. In all cultures expression of Sp35 and phosphorylated TrkA was examined by […] or immuno-histochemical staining.

[4] = system: Oligodendrocyte/DRG co-cultures; assay: Oligodendrocyte/DRG co-culture myelination, MBP immunofluorescence
Description: Enriched populations of oligodendrocytes were grown from Female Long Evans post-natal day 2 (P2) rats. Briefly, the forebrain was dissected out and placed in Hank's buffered salt solution (HBSS) (Invitrogen, Grand Island, N.Y.). The tissue was cut into 1 mm fragments and incubated at 37° C. for 15 min in 0.01% trypsin and 10 μg/ml DNase. Dissociated cells were plated on poly-L-lysine-coated T75 tissue culture flasks and grown at 37° C. for 10 days in DMEM medium with 20% fetal calf serum (Invitrogen). Oligodendrocyte precursors (A2B5+) were collected by shaking the flask overnight at 200 rpm at 37° C., resulting in a 95% pure population. Cultures were maintained in high glucose DMEM medium containing FGF/PDGF (Peprotech) (10 ng/ml) for 1 week.
DRG cultures were prepared as follows. Embryonic dorsal root ganglia (DRG) neurons were grown in vitro as previously described in Mi et al., Nat. Neurosci. 8:745-51 (2005) and Kleitman et al. “Tissue culture methods for the study of myelination.” Culturing Nerve Cells. Banker and Goslin, eds. Cambridge Mass.: MIT Press, 337-377 (1991). Briefly, dorsal root ganglia, dissected from embryonic day 15 (E15) Long Evans rats, were plated on poly-D-lysine (100 μg/ml)-coated cover slips for 2 weeks and grown in Neurobasal medium supplemented with B27 (Invitrogen) in the presence or absence of 100 ng/ml nerve growth factor (BD Biosciences). To remove proliferating glial cells, the cultures were pulsed twice with fluorodeoxyuridine (20 μM) from days 2-6 and from days 8-10.
Oligodendrocyte-DRG co-cultures were prepared as follows. A2B5+ oligodendrocyte progenitor cells and DRG neuron drop cultures were prepared as above. One day after oligodendrocyte progenitors were added to DRG neurons, co-cultures were infected with lentivirus expressing GFP (control), dominant-negative Sp35 or full length Sp35 at 2 MOI per cell. DNA sequences used for lentiviral construction were, mouse Sp35 full length (FL-Sp35, encoding amino acid residues 34-614), Sp35 dominant negative (DN-Sp35, encoding amino acid residues 34-581). DNA sequences were inserted into the NotI and BamHI sites of HRST-IRESeGFP lentivirus vector. Plasmids were transfected into 293FT cells to produce lentivirus as described in Rubinson et al. Nat. Genetics 33:401-406 (2003).
Oligodendrocyte/DRG co-cultures were prepared as described in Example 3. The co-cultures were treated with increasing concentrations of Sp35-Fc or control-Fc for 3 weeks. Monoclonal antibodies against MBP were used to determine MBP protein concentration and for immunofluorescence experiments (Sternberger Monoclonals). […]

Molecule: COC(=O)[C@@]1(O)C[C@H]2O[C@]1(C)n1c3ccccc3c3c4c(c5c6ccccc6n2c5c31)C(=O)NC4 [K525a]
- myelination, as measured by the presence of MBP ([1]; concentration 1 nM): promoted myelination
- myelination, as measured by the presence of MBP ([1]; concentration 3 nM): promoted myelination

Molecule: NGF: Nerve Growth Factor, the TrkA ligand
- Sp35 mRNA in DRGs (Sp35 [2]): induction
- Sp35 in DRG neurons by immunofluorescence (Sp35 [3]; 100 ng/ml of NGF, FIG. 10): Upregulation
- Sp35 expression in oligodendrocyte/DRG cocultures (Sp35 [3]; NGF 0, 10, 50 and 100 ng/ml, FIG. 8): increased
- Sp35 expression in cultured oligodendrocytes (Sp35 [3]; NGF 0, 10, 50 and 100 ng/ml, FIG. 9): remained constant
- myelination in co-culture ([4]; in the presence of NGF): inhibited

B1: Sp35-Fc: extra-cellular portion of human Sp35 (residues 1-532) fused to the hinge and Fc region of human IgG1 (protein)
chain: TGCPPRCECSAQDRAVLCHRKRFVAVPEGIPTETRLLDLGKNRIKTLNQDEFASFPHLEELELNENIVSAVEPGAFNNLFNLRTLGLRSNRLKLIPLGVFTGLSNLTKLDISENKIVILLDYMFQDLYNLKSLEVGDNDLVYISHRAFSGLNSLEQLTLEKCNLTSIPTEALSHLHGLIVLRLRHLNINAIRDYSFKRLYRLKVLEISHWPYLDTMTPNCLYGLNLTSLSITHCNLTAVPYLAVRHLVYLRFLNLSYNPISTIEGSMLHELLRLQEIQLVGGQLAVVEPYAFRGLNYLRVLNVSGNQLTTLEESVFHSVGNLETLILDSNPLACDCRLLWVFRRRWRLNFNRQQPTCATPEFVQGKEFKDFPDVLLPNYFTCRRARIRDRKAQQVFVDEGHTVQFVCRADGDPPPAILWLSPRKHLVSAKSNGRLTVFPDGTLEVRYAQVQDNGTYLCIAANAGGNDSMPAHLHVRSYSPDWPHQPNKTFAFISNQPGE
modifications: left off: a dimerising Fc or GST
notes: extra-cellular portion of human Sp35 (residues 1-532) fused to the hinge and Fc region of human IgG1
- myelination, as measured by the presence of MBP ([1]; Sp35-Fc as comparator for K525a): promoted myelination
- MBP positive oligodendrocytes and myelin internodes ([4]; 100 ng/ml NGF, 14 days, compared to controls, FIG. 13): enhancement
- number of MBP+ oligodendrocytes ([4]; co-culture in the presence of NGF, treated 3 weeks, vs control-Fc, FIG. 5): increased
- number of MBP+ cells, dependence on concentration ([4]; increasing concentrations of Sp35-Fc, 3 weeks, NGF present, FIG. 5C): increased as the concentration of the Sp35 antagonist increased
